Assay results taken from article PMC12195836, “From Ethnopharmacology to Active Compound: Effects of Traditional Plant Extracts on Varicose Vein-Related Enzymes and Isolation of Active Flavonoids from Helichrysum plicatum DC. subsp. plicatum” (Pharmaceuticals, 2025).
Read-outs that look alike come from different tables or passages of the source.

Legend:
[1] = biological target: hyaluronidase; assay: Hyaluronidase enzyme inhibition assay; type: biochemical
Procedure: (§1) All plant samples were macerated using 80% ethanol at room temperature for 5 days. Subsequently, filter paper was used to filter the samples, and the remaining filtrate was evaporated to dryness in a rotary evaporator (Büchi, Flawil, Switzerland). The extracts were weighed and dissolved in dimethyl sulfoxide (DMSO) to reach a concentration of 2 mg/mL, which was used in the in vitro experiments.
(§2) The enzyme inhibition assays conducted in this study included elastase, collagenase, hyaluronidase, XO, and prolyl POP inhibition and were performed using an ELISA microplate reader (Spectramax i3x microplate reader with Softmax® Pro Software for Windows 10; Molecular Devices, San Jose, USA).

[2] = set-up: method as in earlier work; conditions: cited from earlier work
[3] = test system: XO; conditions: cited from earlier work
[4] = biological target: POP enzyme; conditions: cited from earlier work
[5] = biological target: xanthine oxidase (XO) (Homo sapiens, UniProt P47989); assay: XO enzyme inhibition, spectrophotometric (uric acid formation at 295 nm); type: biochemical
xanthine oxidase (XO), sequence (P47989 whole entry, species assumed): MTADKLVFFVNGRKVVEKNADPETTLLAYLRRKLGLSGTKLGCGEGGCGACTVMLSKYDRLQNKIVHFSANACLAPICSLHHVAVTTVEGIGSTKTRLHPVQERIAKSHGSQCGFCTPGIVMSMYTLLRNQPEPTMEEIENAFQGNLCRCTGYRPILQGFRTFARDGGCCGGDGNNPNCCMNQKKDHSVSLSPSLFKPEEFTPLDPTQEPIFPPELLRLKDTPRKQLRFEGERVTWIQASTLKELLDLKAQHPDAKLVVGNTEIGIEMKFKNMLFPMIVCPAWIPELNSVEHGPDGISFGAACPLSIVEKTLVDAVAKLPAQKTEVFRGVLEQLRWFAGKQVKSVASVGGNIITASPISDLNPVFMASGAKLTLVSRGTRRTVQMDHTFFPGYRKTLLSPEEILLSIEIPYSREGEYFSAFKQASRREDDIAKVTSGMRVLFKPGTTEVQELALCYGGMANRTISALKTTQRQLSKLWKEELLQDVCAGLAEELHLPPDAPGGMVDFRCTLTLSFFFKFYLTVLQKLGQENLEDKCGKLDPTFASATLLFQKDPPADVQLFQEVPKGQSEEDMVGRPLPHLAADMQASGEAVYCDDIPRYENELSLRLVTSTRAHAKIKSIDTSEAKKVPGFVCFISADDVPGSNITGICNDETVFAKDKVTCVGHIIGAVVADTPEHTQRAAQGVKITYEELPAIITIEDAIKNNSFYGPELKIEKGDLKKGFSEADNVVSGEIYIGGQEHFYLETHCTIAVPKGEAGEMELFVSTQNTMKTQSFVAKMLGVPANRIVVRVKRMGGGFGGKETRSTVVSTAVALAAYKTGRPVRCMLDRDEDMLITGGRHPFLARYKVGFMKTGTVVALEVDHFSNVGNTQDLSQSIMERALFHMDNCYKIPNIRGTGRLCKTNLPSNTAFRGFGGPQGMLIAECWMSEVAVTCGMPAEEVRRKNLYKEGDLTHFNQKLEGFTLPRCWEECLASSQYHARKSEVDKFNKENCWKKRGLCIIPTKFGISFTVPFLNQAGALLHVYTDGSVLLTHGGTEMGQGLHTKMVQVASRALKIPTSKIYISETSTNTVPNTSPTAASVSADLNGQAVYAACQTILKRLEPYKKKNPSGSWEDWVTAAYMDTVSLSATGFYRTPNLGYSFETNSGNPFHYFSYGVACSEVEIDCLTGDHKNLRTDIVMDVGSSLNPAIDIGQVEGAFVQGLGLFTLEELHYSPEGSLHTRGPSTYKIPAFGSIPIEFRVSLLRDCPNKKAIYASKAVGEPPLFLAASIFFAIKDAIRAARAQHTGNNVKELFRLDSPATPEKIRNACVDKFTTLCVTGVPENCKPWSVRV
Procedure: as §1, §2

[6] = biological target: collagenase; assay: Collagenase inhibition, modified spectrophotometric method; type: biochemical
Procedure: as §1
The enzyme inhibition assays conducted in this study included elastase, collagenase, hyaluronidase, XO, and prolyl POP inhibition and were performed using an ELISA microplate reader (Spectramax i3x microplate reader with Softmax® Pro Software for Windows 10; Molecular Devices, San Jose, USA). Elastase inhibition by the extracts was assessed using a modified spectrophotometric method based on Kraunsoe et al. (1996) and Lee et al. (2009). Collagenase inhibition was evaluated using the modified spectrophotometric method by Barrantes and Guinea 2003 [67], which was originally developed by Wart and Steinbrink (1981). The LOX inhibitory activities of the extracts were determined following the method of Chung et al. (2009), with minor modifications. XO inhibition was measured spectrophotometrically by monitoring the absorbance at 295 nm from uric acid formed during an enzymatic reaction. […]

[7] = test system: LOX; set-up: method as in PMID 27316769; conditions: dose-dependent; read-out: LOX inhibition IC50; cited from earlier work
[8] = Nitric oxide radical-scavenging activity
Procedure: as §1
The determination of the superoxide radical (O2^•−)-scavenging effect was conducted using the method described by Duh et al.. To assess the nitric oxide (NO)-scavenging effect, the method of Sreejayan and Rao was utilised with some modifications.

Which results are given for tannic acid?
Hyaluronidase inhibition IC50 [1]: 2.31 ± 0.73 µg/mL; Hyaluronidase Enzyme Inhibition (% Inhibition ± S.D.), reference ([1]; References (1 mg/mL)): 92.51 ± 3.53%

Which “NO radical-scavenging activity IC50” value [2] does the source give for `O=c1c(O)c(-c2ccc(O)c(O)c2)oc2cc(O)cc(O)c12` [quercetin] here?
Its value is 0.16 ± 0.01 mg/mL.

Which IC50 ([3]; flavonoids isolated from Blumea balsamifera L., read-out: XO inhibitory activity IC50) does the source give for `O=c1cc(-c2ccc(O)c(O)c2)oc2cc(O)cc(O)c12` [luteolin] here?
The IC50 was 2.38 ± 0.01 µM.

And the IC50 ([3]; read-out: XO inhibition IC50)?
Its IC50 is 0.96 µM.

And the “POP inhibition IC50” value [4]?
The value was 0.17 ppm.

What about the IC50 [5] of the same compound?
The IC50 was 49.8 µM.

With `Oc1ncnc2[nH]ncc12` [allopurinol, reference compound] as the compound, how does the IC50 ([3]; read-out: XO inhibition IC50) read?
The IC50 was 4.05 µM.

What about the inhibition at 25 µg/mL ([5]; read-out: XO Enzyme Inhibition (% Inhibition ± S.D.)) of the same compound?
Its inhibition at 25 µg/mL is 91.6 ± 1.3%.

What about the inhibition at 500 µg/mL ([5]; read-out: XO Enzyme Inhibition (% Inhibition ± S.D.), reference) of the same compound?
The inhibition at 500 µg/mL was 91.6 ± 1.3%.

Which “inhibitory activity against XO (in words)” value [3] does the source give for `O=C1C[C@@H](c2ccc(O)cc2)Oc2cc(O)cc(O)c21` [naringenin] here?
Its value is “moderate inhibitory activity”.

And the IC50 ([3]; read-out: XO inhibition IC50)?
Its IC50 is 4.57 µM.

What about the “inhibitory activity against the POP enzyme (in words)” value [4] of the same compound?
The value was “did not exhibit inhibitory activity”.

What about the IC50 [5] of the same compound?
The IC50 was 130 µM.

Which “Collagenase inhibition IC50” value [6] does the source give for `c1cnc2c(c1)ccc1cccnc12` [1,10-phenanthroline] here?
Its value is 27.95 ± 0.3 µg/mL.

And the “Collagenase Enzyme Inhibition (% Inhibition ± S.D.), reference” value ([6]; References (1 mg/mL))?
The value was 87.39 ± 2.85%.

Which results are given for `O=c1cc(-c2ccc(O)cc2)oc2cc(O)cc(O)c12` [apigenin]?
IC50 ([3]; competitive inhibitor, read-out: XO inhibition IC50): 3.57 µM; IC50 [5]: 40.1 µM

For `Oc1ccc2c(c1)OCO2` [sesamol], which IC50 [7] is on record?
Its IC50 is 51.8 µM.

What does the source list for `O=C1O[C@H]([C@@H](O)CO)C(O)=C1O` [Vitamin C]?
Nitric oxide radical-scavenging IC50 [8]: 25.28 ± 2.98 µg/mL; Nitric Oxide Radical-Scavenging Activity (% Inhibition ± S.D.), reference ([8]; Vitamin C (1 mg/mL)): 92.72 ± 0.10%

Which IC50 ([4]; read-out: POP inhibition IC50) does the source give for `COc1ccc2cc3[n+](cc2c1OC)CCc1cc2c(cc1-3)OCO2` [berberine] here?
The IC50 was 142 ± 21.5 µM.
